{
  "source": "patent US20140235542A1",
  "about": "“MODULAR, BIOACTIVE PEPTIDES FOR BINDING NATIVE BONE AND IMPROVING BONE GRAFT OSTEOINDUCTIVITY” (WISCONSIN ALUMNI RESEARCH FOUNDATION, priority 2013, published 2014)",
  "key": {"[1]": {"assay": "Binding of rhodamine-labeled peptide to living trabecular bone cores in a bone bioreactor", "parameters": "species or system bovine", "settings": "100 μg/mL in DMEM circulated, 2-10 hours", "procedure": "The native bone used were harvested from sheep tibia and bovine sternum. Cortical (compact) bone slices were collected from sheep tibia with periosteum removed, and trabecular (cancellous, spongy) bone cores were drilled out from bovine sternum under sterile conditions.\nThe peptide binding to native bones was tested in three different experiments. In the first experiment, the cortical bone slices were incubated in modular peptide solution (0.5 mL, PBS) with concentrations of 50, 100, 200 and 300 μg/mL. The incubation was continued in a static condition for a period of 0.5, 1, 2 and 3 hours. […] Following each experiment, the bones were rinsed with PBS to remove unbound peptide and their fluorescence images were captured using a Typhoon fluorescence scanner (GE healthcare) or a Nikon Eclipse Ti inverted microscope. To quantify the fluorescence intensity, the images were converted into 8-bit using ImageJ to present the intensity level of each pixel in the range of 0 to 255. […]\nmBMP binding to living trabecular bone cores (1 cm in diameter and 0.5 cm in thickness) harvested from bovine sternum was assessed. […] After incubating for various time periods, the binding was measured in terms of fluorescence intensity from rhodamine labeled mBMP. […]"}, "hMSCs": {"system": "hMSCs", "assay": "Mineralized tissue formation by hMSCs (Alizarin Red-S staining)", "format": "cell-based, human", "settings": "peptide bound to HA-coated film, vs untreated substrates", "procedure": "hMSCs (Cambrex, Walkersville, Md., passages 5-6) were cultured in mesenchymal stem cell growth medium (MSCGM: Cambrex) consisting of MSC Basal Medium supplemented with 10% fetal bovine serum, L-glutamine, 100 units/ml penicillin, and 0.1 mg/ml streptomycin and grown using culture methods described elsewhere. 2.5×10^4 hMSCs were seeded onto either tissue culture-treated polystyrene (TCP) or four different types of experimental substrates (1 cm^2) (PLG, HA-coated PLG, eBGu3-treated HA coating, or eBGa3-treated HA coating). hMSCs were allowed to attach to each substrate overnight, then cultured in MSCGM with osteogenic culture supplements (OS) (0.1 μM dexamethasone, 50 μg/ml ascorbic acid, and 10 mM β-glycerophosphate) for 24 days. The effects of soluble peptides included in culture medium were evaluated by adding 50 μg of eBGu3 or eBGa3 peptides to hMSC cultures on TCP in 500 μl of medium with or without osteogenic culture supplements. […]\nCharacterization of mineralized tissue growth was performed via Alizarin Red-S (ARS) staining at day 20. […] For quantification of staining, 400 μl 10% (v/v) acetic acid was added to each well for 30 minutes with shaking. […] Aliquots (100 μl) of the supernatant were read in triplicate at 405 nm in 96-well plate reader."}, "[2]": {"assay": "Release kinetics of modular peptides from HA-coated film", "settings": "after 70 days", "procedure": "To quantify release kinetics of 5(6) FAM-conjugated modular peptides from HA-coated film, the films were first incubated in solutions containing 250 μM (˜500 μg) of each peptide (eBGu1, eBGu3, eBGa1, or eBGa3) to allow for binding (as described above), then incubated in 500 μl of PBS buffer at 37° C. with constant agitation for 5 days (eBGu1 and eBGu3 peptides) or 10 weeks (eBGa1 and eBGa3 peptides), respectively. Whole buffer solutions were changed at indicated time points and the amount of peptide released from the HA-coated film was determined via fluorescence analysis and comparison with standards containing known amounts of 5(6)-FAM. The fluorescent images of fluorescently-labeled peptides bound to HA-coated films were obtained using an Olympus IX51 fluorescence microscope (Olympus, Center Valley, Pa.)."}},
  "note": "Square brackets hold non-standard residues; d marks the D form. Ends that are not written are not given here. Gla = N[C@@H](CC(C(=O)O)C(=O)O)C(=O)O",
  "data": [
    {"substance": "KIPKASSVPTELSAISTLYLAAAAγEPRRγEVAγEL (KIPKASSVPTELSAISTLYLAAAA[Gla]PRR[Gla]VA[Gla]L-NH2; N-terminus assumed; SMILES CC[C@H](C)[C@H](NC(=O)[C@H](C)NC(=O)[C@H](CO)NC(=O)[C@H](CC(C)C)NC(=O)[C@H](CCC(=O)O)NC(=O)[C@@H](NC(=O)[C@@H]1CCCN1C(=O)[C@@H](NC(=O)[C@H](CO)NC(=O)[C@H](CO)NC(=O)[C@H](C)NC(=O)[C@H](CCCCN)NC(=O)[C@@H]1CCCN1C(=O)[C@@H](NC(=O)[C@@H](N)CCCCN)[C@@H](C)CC)C(C)C)[C@@H](C)O)C(=O)N[C@@H](CO)C(=O)N[C@H](C(=O)N[C@@H](CC(C)C)C(=O)N[C@@H](Cc1ccc(O)cc1)C(=O)N[C@@H](CC(C)C)C(=O)N[C@@H](C)C(=O)N[C@@H](C)C(=O)N[C@@H](C)C(=O)N[C@@H](C)C(=O)N[C@@H](CC(C(=O)O)C(=O)O)C(=O)N1CCC[C@H]1C(=O)N[C@@H](CCCNC(=N)N)C(=O)N[C@@H](CCCNC(=N)N)C(=O)N[C@@H](CC(C(=O)O)C(=O)O)C(=O)N[C@H](C(=O)N[C@@H](C)C(=O)N[C@@H](CC(C(=O)O)C(=O)O)C(=O)N[C@@H](CC(C)C)C(N)=O)C(C)C)[C@@H](C)O) [eBGa3]", "values": [
      {"measurement": "incubation time at which binding reached a plateau", "setting": "[1]", "result": 4, "unit": "h"},
      {"measurement": "effect of immobilized peptide on mineralized tissue formation", "setting": "hMSCs", "result": "significantly enhanced"},
      {"measurement": "initially bound peptide remaining bound", "setting": "[2]", "result": "~85", "unit": "%"},
      {"measurement": "peptide released from HA-coated films", "setting": "[2]; PBS, 37° C.", "result": "15.7±0.6", "unit": "%"}
    ]}
  ]
}
